In brackets after ≈: the same amount, converted by molar mass.

The subject of one test is KB. The test is described as follows: Cytotoxicity against human KB cells. Format: functional, cell-based.
A further test concerns HeLa. In words: Cytotoxicity against human HeLa S3 cells. Format: functional, cell-based.

In the case of `CC1(C)CC[C@]2(C(=O)O[C@@H]3O[C@H](CO)[C@@H](O)[C@H](O)[C@H]3O)CC[C@]3(C)C(=CC[C@@H]4[C@@]5(C)CC[C@H](O[C@@H]6O[C@H](C(=O)O)[C@@H](O)[C@H](O[C@@H]7O[C@H](CO)[C@@H](O)[C@H](O)[C@H]7O)[C@H]6O[C@@H]6O[C@H](CO)[C@H](O)[C@H](O)[C@H]6O)C(C)(C)C5CC[C@]43C)[C@H]2C1` (stereo partly specified), the half-maximal inhibitory concentration (IC50) (usually the concentration needed to halve the response being measured) with KB came to 1.2 µg/mL (≈ 1.07 µM); in the test with HeLa, 0.02 µg/mL (≈ 0.0179 µM).

As for `Nc1ccn([C@@H]2O[C@H](CO)[C@@H](O)[C@@H]2O)c(=O)n1` [CYTARABINE], the half-inhibitory concentration (IC50) was 0.81 µg/mL (≈ 3.33 µM) in the test on KB and 0.23 µg/mL (≈ 0.946 µM) with HeLa.

Regarding `O=c1[nH]cc(F)c(=O)[nH]1` [FLUOROURACIL], the IC50 was 0.93 µg/mL (≈ 7.15 µM) in the test on KB and 0.44 µg/mL (≈ 3.38 µM) with HeLa.

For the origin of these results see ChEMBL document CHEMBL1144073, “A cytotoxic triterpene saponin from the root bark of Aralia dasyphylla” (J Nat Prod, 1999).
